# Patent US8975279B2, “Amine salts of laquinimod” (Teva Pharmaceutical Industries, Ltd., priority 2012, dated 2015)
# Several values for one entry are separate records, joined by “and”; a condition that tells them apart may be missing. Equal entries are not always repeated. Entries after “also recorded” stand apart in the source; their conditions may differ. Structures can show the parent of a compound that is named as a salt. Where two headings read alike, the source gives them in different places. Marks after values point to notes of the source that are not given here.
# Tests used:
# [1] = Aqueous solubility of laquinimod and its salts; assay type: physicochemical; settings: for Aqueous solubility: water
# [2] = Physical stability in glass vials at +5° C., air atmosphere; assay type: physicochemical; settings: for Sample appearance: glass vials, air atmosphere
# [3] = Physical stability on exposure to atmospheric air at room temperature; assay type: physicochemical
# [4] = cited from earlier work
# [5] = cited from earlier work; remark: listed apart in the source
# [6] = cited from earlier work; for intrinsic solubility: free laquinimod in water
# [7] = +5° C., after 10 months of storage
# [8] = sealed transparent glass vials at +5° C. for 6 months
# [9] = +5° C., after 9 months of storage
# [10] = +5° C., after 7 months of storage
# [11] = sealed transparent glass vials at +5° C. for 3 months
# [12] = RH=25-30%, T=18-20° C., 4 hours
structure (smiles),measurement,setting,value
"CCN(C(=O)c1c(O)c2c(Cl)cccc2n(C)c1=O)c1ccccc1 [Batch 1, laquinimod meglumine]",Aqueous solubility,[1],1330 mg/ml H2O
same,Aqueous solubility,"[1]; depends on preparation method and form, listed as 1.1",1330 mg/mL
same,Physical stability (physical change),[2]; [7],no sign of physical change
same,Sample appearance,"[2]; +5° C., 6 months",White flowable powder
same,Sample appearance,"[2]; +5° C., last row of Table 7.A, time printed 0 month",White flowable powder
same,Sample appearance,"[2]; +5° C., time 0 month",White flowable powder
same,Physical stability (physical change),[2]; [8],No physical change was observed
same,Physical stability,"[3]; RH=38%, open dish, 20 hours",No signs of aggregation or deliquescence were observed
"CCN(C(=O)c1c(O)c2c(Cl)cccc2n(C)c1=O)c1ccccc1 [Batch 9, laquinimod L-lysine]",Aqueous solubility,[1],1176 mg/ml H2O
same,Aqueous solubility,"[1]; depends on preparation method and form, listed as 3.1",1176 mg/mL
same,Physical stability (physical change),[2]; [9],no sign of physical change
same,Sample appearance,"[2]; +5° C., 5 months",White flowable powder
same,Sample appearance,"[2]; +5° C., 6 months",white flowable powder
same,Sample appearance,"[2]; +5° C., 9 months",White flowable powder
same,Sample appearance,"[2]; +5° C., time 0 month",White flowable powder
same,Physical stability (physical change),[2]; [8],No physical change was observed
CNCC(O)C(O)C(O)C(O)CO.Oc1cc(Cl)ccc1Oc1ccc(Cl)cc1Cl [Triclosan meglumine salt],solubility,[4]; pH not given,12.43 mg/mL
"CN1C(C(=O)Nc2ccccn2)=C(O)c2ccccc2S1(=O)=O [free piroxicam, piroxicam]",solubility,"[4]; pH 7.4, unit not given",0.17
"CCN(C(=O)c1c(O)c2c(Cl)cccc2n(C)c1=O)c1ccccc1 [Batch 6, laquinimod choline hydroxide]",Physical stability (physical change),"[2]; +5° C., after 5 months",developed color and deliquescence occurred
same,Sample appearance,"[2]; +5° C., 6 months",yellowish semi-solid with signs of deliquescence
same,Sample appearance,"[2]; +5° C., time 0 month",White glassy solid
same,Physical stability (physical change),[2]; [8],Physical change was observed
CCN(C(=O)c1c(O)c2c(Cl)cccc2n(C)c1=O)c1ccccc1 [laquinimod L-lysine],Aqueous solubility,"[1]; depends on preparation method and form, listed as L-lysine laquinimod salt",1000 mg/mL and 1176 mg/mL
Cc1cnc(NC(=O)C2=C(O)c3ccccc3S(=O)(=O)N2C)s1 [meloxicam sodium salt],Aqueous solubility,[4]; pH 8.06,2.0 mg/mL
NCCO.Oc1cc(Cl)ccc1Oc1ccc(Cl)cc1Cl [Monoethanolamine salt of triclosan],solubility,[4]; pH not given,5.84 mg/mL
"CCN(C(=O)c1c(O)c2c(Cl)cccc2n(C)c1=O)c1ccccc1 [laquinimod, N-ethyl-N-phenyl-1,2-dihydro-4-hydroxy-5-chloro-1-methyl-2-oxoquinoline-3-carboxamide]",pKa,[5],4.2
same,intrinsic solubility,[6],0.007 mg/mL
same,intrinsic solubility,[6]; listed as Free laquinimod,about 0.007 mg/ml
"CCN(C(=O)c1c(O)c2c(Cl)cccc2n(C)c1=O)c1ccccc1 [Batch 14, laquinimod monoethanolamine]",Physical stability (physical change),[2]; [10],no sign of physical change
same,Sample appearance,"[2]; +5° C., 3 months",white powder
same,Physical stability (physical change),[2]; [11],No physical change was observed
same,Physical stability,[3]; [12],no change
same,Physical stability,"[3]; RH=25-30%, T=18-20° C., 16 hours",aggregated white powder
C[N+](C)(C)CCO.[OH-] [Choline hydroxide],pKa,[5],13.9
CCN(C(=O)c1c(O)c2c(Cl)cccc2n(C)c1=O)c1ccccc1 [laquinimod monoethanolamine],Aqueous solubility,"[1]; depends on preparation method and form, listed as Laquinimod monoethanoloamine salt",625 mg/mL and 1176 mg/mL
"CCN(C(=O)c1c(O)c2c(Cl)cccc2n(C)c1=O)c1ccccc1 [Batch 12, laquinimod monoethanolamine]",Sample appearance,"[2]; +5° C., 3 months",yellowish aggregated powder
same,Physical stability (overall),"[2]; refrigerator, atmospheric air, overall statement",less stable
same,Physical stability (physical change),[2]; [11],Physical change was observed
same,Physical stability,[3]; [12],no change
same,Physical stability,"[3]; RH=25-30%, T=18-20° C., 24 hours",yellowish aggregated powder
"CCN(C(=O)c1c(O)c2c(Cl)cccc2n(C)c1=O)c1ccccc1 [Batch 7, laquinimod choline hydroxide]",Aqueous solubility,[1],> 2100 mg/ml H2O
same,Aqueous solubility,"[1]; depends on preparation method and form, listed as 2.3",>2100** mg/ml
same,Physical stability (physical change),[2]; [9],no sign of physical change
same,Sample appearance,"[2]; +5° C., 5 months",White powder
same,Sample appearance,"[2]; +5° C., 6 months",white powder with no signs of deliquescence
same,Sample appearance,"[2]; +5° C., 9 months",White powder
same,Sample appearance,"[2]; +5° C., time 0 month",White powder
same,Physical stability (physical change),[2]; [8],No physical change was observed
"CCN(C(=O)c1c(O)c2c(Cl)cccc2n(C)c1=O)c1ccccc1 [Batch 4, laquinimod meglumine]",Aqueous solubility,[1],1050 mg/ml H2O
same,Aqueous solubility,"[1]; depends on preparation method and form, listed as 1.4",1050 mg/mL
same,Physical stability (physical change),[2]; [7],no sign of physical change
same,Sample appearance,"[2]; +5° C., 6 months",white powder with no signs of deliquescence
same,Physical stability (physical change),[2]; [8],No physical change was observed
"CCN(C(=O)c1c(O)c2c(Cl)cccc2n(C)c1=O)c1ccccc1 [Batch 15, laquinimod monoethanolamine]",Aqueous solubility,[1],625 mg/ml H2O
same,Aqueous solubility,"[1]; depends on preparation method and form, listed as 4.4",625 mg/mL
same,Sample appearance,"[2]; +5° C., 3 months",off-white powder
same,Sample appearance,"[2]; +5° C., time 0 month",White powder
same,Physical stability (physical change),[2]; [11],Small physical change was observed; also recorded: color change was developed
same,Physical stability,"[3]; RH=29-32%, T=18-20° C., 4 hrs",no change; remained white powder
same,Physical stability,"[3]; RH=29-32%, T=18-20° C., 25 hrs",no change; remained white powder
CNC[C@H](O)[C@@H](O)[C@H](O)[C@H](O)CO.Cc1cnc(NC(=O)C2=C(O)c3ccccc3S(=O)(=O)N2C)s1 [meglumine salt of meloxicam],Aqueous solubility,[4]; pH 8.57,2.3 mg/mL
"C[N+](C)(C)CCO.O=C([O-])c1ccccc1O [choline salicylate salt, choline salicylate]",solubility (in words),[4],insoluble
"CCN(C(=O)c1c(O)c2c(Cl)cccc2n(C)c1=O)c1ccccc1 [Batch 10, laquinimod L-lysine]",Aqueous solubility,[1],1000 mg/ml H2O
same,Aqueous solubility,"[1]; depends on preparation method and form, listed as 3.2",1000 mg/mL
same,Physical stability (physical change),[2]; [9],no sign of physical change
same,Sample appearance,"[2]; +5° C., 5 months",White flowable powder
same,Sample appearance,"[2]; +5° C., 6 months",white powder
same,Sample appearance,"[2]; +5° C., 9 months",White flowable powder
same,Sample appearance,"[2]; +5° C., time 0 month",White flowable powder
same,Physical stability (physical change),[2]; [8],No physical change was observed
"CCN(C(=O)c1c(O)c2c(Cl)cccc2n(C)c1=O)c1ccccc1 [Batch 3, laquinimod meglumine]",Physical stability (physical change),"[2]; +5° C., after 5 months",physical change was observed
same,Sample appearance,"[2]; +5° C., 6 months","lumped white powder, with signs of deliquescence"
same,Physical stability (physical change),[2]; [8],Physical change was observed
CCN(C(=O)c1c(O)c2c(Cl)cccc2n(C)c1=O)c1ccccc1 [laquinimod meglumine],Aqueous solubility,"[1]; depends on preparation method and form, listed as meglumine laquinimod salt",1050 mg/mL and 1330 mg/mL
CC(C)Cc1ccc(C(C)C(=O)[O-])cc1.[Na+] (stereo not shown) [ibuprofen sodium salt],solubility,[4]; pH not given,100 mg/mL
CCN(C(=O)c1c(O)c2c(Cl)cccc2n(C)c1=O)c1ccccc1 [laquinimod choline hydroxide],solubility relative to the sodium salt,[1]; laquinimod choline hydroxide salt vs laquinimod sodium,over 14 times
same,Aqueous solubility,"[1]; depends on preparation method and form, listed as choline hydroxide salt of laquinimod",2000 mg/mL and 2100 mg/mL
"CCN(C(=O)c1c(O)c2c(Cl)cccc2n(C)c1=O)c1ccccc1 [Batch 13, laquinimod monoethanolamine]",Aqueous solubility,[1],1176 mg/ml H2O
same,Aqueous solubility,"[1]; depends on preparation method and form, listed as 4.2",1176 mg/mL
same,Physical stability (physical change),[2]; [10],slight aggregation was developed
same,Sample appearance,"[2]; +5° C., 3 months",off-white powder
same,Sample appearance,"[2]; +5° C., time 0 month",White powder
"CCN(C(=O)c1c(O)c2c(Cl)cccc2n(C)c1=O)c1ccccc1 [Batch 8, laquinimod choline hydroxide]",Aqueous solubility,[1],2000 mg/ml H2O
same,Aqueous solubility,"[1]; depends on preparation method and form, listed as 2.4",>2000** mg/ml
same,Physical stability (physical change),[2]; [9],no sign of physical change
same,Sample appearance,"[2]; +5° C., 5 months",White powder
same,Sample appearance,"[2]; +5° C., 6 months",white powder with no signs of deliquescence
same,Sample appearance,"[2]; +5° C., 9 months",White powder
same,Sample appearance,"[2]; +5° C., time 0 month",White powder
same,Physical stability (physical change),[2]; [8],No physical change was observed
"CCN(C(=O)c1c(O)c2c(Cl)cccc2n(C)c1=O)c1ccccc1 [laquinimod sodium, reference compound]",solubility in water according to the USP,[1]; USP descriptive term,freely soluble to soluble
same,Aqueous solubility,"[6]; existing sodium salt, U.S. Pat. No. 7,589,208",138 mg/mL
"Cc1cnc(NC(=O)C2=C(O)c3ccccc3S(=O)(=O)N2C)s1 [free meloxicam, meloxicam]",solubility,[4]; pH 7.4,0.74 mg/mL
CN1C(C(=O)Nc2ccccn2)=C(O)c2ccccc2S1(=O)=O.NCCO [monoethanolamine salt of piroxicam],solubility,[4]; pH 7.4,126.2 mg/mL
